Reference: patent US6241963A, “Dopamine and serotonin transporter ligands and imaging agents” (priority 1996, dated 2001)
“And” between values parts separate entries of the source, which are not always exact repeats. Equal entries are not always repeated. “Also recorded” adds a separate entry of the source. Where two headings read alike, the source gives them in different places.

Experiments:
[1] = assay type: in vivo, Male Sprague-Dawley rats
Method: Male Sprague-Dawley rats (225-300 g) allowed free access to food and water were used for in vivo biodistribution studies. Kung, 1984, supra; Kung, 1985, supra. While under ether anesthesia, 0.2 mL of a saline solution containing 1.19a, 1.19b, 1.20a, 1.20b or 1.21 (50-100 μCi) was injected directly into the femoral vein of rats, and the rats were sacrificed by cardiac excision at various time points post-injection. The organs of interest were removed and weighed, and the radioactivity was counted with an automatic gamma counter (Packard 5000). The percentage dose per organ was calculated by a comparison of the tissue counts to suitably diluted aliquots of the injected material. Total activities of blood and muscle were calculated under the assumption that they were 7% and 40% of the total body weight, respectively.
The major criteria for determining the potential usefulness of in vivo dopamine transporter imaging agents are based on an animal biodistribution study. In this case, rats were used as an animal model. After an intravenous injection of the Tc-99m labeled compounds, the values of initial brain uptake (% dose/whole organ) at 2 minutes post intravenous injection are used to measure the ability to penetrate the intact blood-brain barrier. Compounds displaying higher brain uptake are the better agents (minimum requirement >0.1% dose in brain). The second criteria is the specific uptake in the striatum region of the brain, where dopamine transporters are located. The uptake value (% dose/gram) of the striatum (ST) is divided by the background area, cerebellum (CB; essentially devoid of dopamine transporter); the ratio of ST/CB is an indicator for specific uptake (minimum requirement for ST/CB >1.5). Five structurally similar tropane derivatives were examined in this biological study. (Tables 1.1 to 1.4).
Male Sprague-Dawley rats (225-300 g) that were allowed free access to food and water were used for in vivo biodistribution studies. (Kung, 1984, supra; Kung, 1985, supra). While under halothane anesthesia, 0.2 mL of a saline solution containing 3.24 to 3.34 ([…]) was injected directly into the femoral vein of rats, and they were sacrificed by cardiac excision at various time points post-injection. The organs of interest were removed and weighed, and the radioactivity was counted with an automatic gamma counter (Packard 5000). The percentage dose per organ was calculated by a comparison of the tissue counts to suitably diluted aliquots of the injected material. Total activities of blood and muscle were calculated under the assumption that they were 7% and 40% of the total body weight, respectively.

dopamine transporters [2] = assay: SPECT imaging in a baboon, co-registered with MRI; assay type: in vivo; details: 60-90 min post iv injection of 9 mCi
Method: A baboon (~15 kg) was the subject of a SPECT imaging study. Prior to imaging, the animal was fasted, immobilized with ketamine (10-20 mg/kg, i.m.) and xylazine (2-3 mg/kg, i.m.), intubated and maintained on a 1.5-2.0% isofluorane/98.5% oxygen mixture (flow rate of 200-500 cc/min). […] Body temperature was maintained using a hot water circulating heating pad and was monitored with a rectal thermometer. The animal's head was immobilized using a vacuum-packed bean-bag device that hardens upon evacuation when molded around the head. No-carrier-added [^99m Tc]TRODAT-1 (1.19a; 9 mCi) was administered as an intravenous bolus in the saphenous vein of the baboon. Immediately after injection, sequential 5 minute per frame dynamic SPECT scans were acquired on a triple-headed Picker Prism 3000 camera (FWHM: 7 mm) equipped with fan beam collimators for 2 hours. The acquisition parameters were a 20% energy window at 140 KeV, 120 projection angles over 360 degrees, a 128×128 matrix, and a zoom factor of 1.78 in a slice thickness of 2 mm. The projection data was reconstructed with a count dependent 3-D Wiener filter. Chang's first order correction method was used to compensate for attenuation. Magnetic resonance images (MRI) of the baboon brain were acquired with a 1.5 Tesla machine (GE Medical Systems, Milwaukee, Wis.). […]

dopamine transporters [3] = target: dopamine transporters (Rattus norvegicus, UniProt P23977); assay: In vitro autoradiography of rat brain sections; assay type: binding, Male Sprague-Dawley rats; details: rat brain coronal sections
dopamine transporters (Rattus norvegicus, UniProt P23977), sequence (P23977 whole entry): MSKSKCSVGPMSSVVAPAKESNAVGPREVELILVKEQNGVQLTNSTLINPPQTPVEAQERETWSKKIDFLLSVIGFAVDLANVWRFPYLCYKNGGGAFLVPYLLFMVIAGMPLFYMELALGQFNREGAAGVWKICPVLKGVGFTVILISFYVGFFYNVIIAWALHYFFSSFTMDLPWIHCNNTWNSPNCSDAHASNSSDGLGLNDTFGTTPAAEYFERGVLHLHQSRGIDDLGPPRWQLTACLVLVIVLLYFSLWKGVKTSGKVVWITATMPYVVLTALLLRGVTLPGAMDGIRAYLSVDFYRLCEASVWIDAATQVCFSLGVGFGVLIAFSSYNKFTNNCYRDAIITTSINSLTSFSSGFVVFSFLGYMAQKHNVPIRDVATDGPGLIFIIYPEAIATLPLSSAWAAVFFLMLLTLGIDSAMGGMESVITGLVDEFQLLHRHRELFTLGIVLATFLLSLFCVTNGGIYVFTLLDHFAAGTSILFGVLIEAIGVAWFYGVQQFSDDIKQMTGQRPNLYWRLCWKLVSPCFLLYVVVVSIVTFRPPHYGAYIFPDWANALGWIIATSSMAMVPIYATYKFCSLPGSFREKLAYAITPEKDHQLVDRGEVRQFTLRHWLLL
Method: Male Sprague-Dawley rats ([…]) were sacrificed by decapitation, and the brains were removed, placed in OTC embedding medium (Miles Laboratory, Elkhart, Ind.) frozen in powdered dry ice. After equilibration to -15° C., 20 μm coronal sections were sliced on a cryostat (Hacker Instruments, Fairfield, N.J.), thaw mounted onto gelatin-coated slides, desiccated at 4° C. for 3 hours and kept at -70° C. until use. Prior to the experiment, the slides were dried at room temperature and preincubated for 30 minutes in buffer containing 50 mM Tris-HCl (pH 7.4, 120 mM NaCl). The slides were then incubated for 2 hours in preincubation buffer and the [^99m Tc] compound 3.25 (385,000 cpm/200 μL) in a coplan jar, washed for 1 hour in cold Tris buffer, with one change of buffer, dipped in ice-cold water to remove buffer salts and allowed to dry at room temperature. Nonspecific binding was determined in the presence of 1 μM IPT. These slides were simultaneously exposed to DuPont x-ray film in an autoradiographic cassette for 18 hours. The exposed film was developed with a Kodak automatic film processor.

[4] = rat, cited from earlier work
[5] = Table 1.2, rats iv, percentage dose per organ

Structure (SMILES): CN1[C@H]2CC[C@@H]1[C@@H](C[N+]13CC[S][99Tc-]14(=[O])[S]CC[N]4CC3)[C@@H](c1ccc(Cl)cc1)C2 (some centres unmarked) [Compound 1.19a]
- Biodistribution, Blood, 60 minutes* ([1]; Table 1.2, *unexplained): 6.29 ± 1.12
- Biodistribution, Brain, 60 minutes* ([1]; Table 1.2, *unexplained): 0.12 ± 0.01
- Biodistribution, Heart, 60 minutes* ([1]; Table 1.2, *unexplained): 0.25 ± 0.05
- Biodistribution, Kidney, 60 minutes* ([1]; Table 1.2, *unexplained): 1.76 ± 0.32
- Biodistribution, Liver, 60 minutes* ([1]; Table 1.2, *unexplained): 20.35 ± 0.99
- Biodistribution, Lung, 60 minutes* ([1]; Table 1.2, *unexplained): 1.76 ± 0.12
- Biodistribution, Muscle, 60 minutes* ([1]; Table 1.2, *unexplained): 10.37 ± 0.48
- Biodistribution, Skin, 60 minutes* ([1]; Table 1.2, *unexplained): 4.11 ± 0.29
- Biodistribution, Spleen, 60 minutes* ([1]; Table 1.2, *unexplained): 0.51 ± 0.06
- Biodistribution, Blood, 2 minutes [1, 5]: 4.94 ± 0.46
- Biodistribution, Blood, 60 minutes [1, 5]: 2.14 ± 0.17
- Biodistribution, Brain, 2 minutes [1, 5]: 0.43 ± 0.16
- Biodistribution, Brain, 60 minutes [1, 5]: 0.12 ± 0.00
- Biodistribution, Heart, 2 minutes [1, 5]: 1.47 ± 0.16
- Biodistribution, Heart, 60 minutes [1, 5]: 0.19 ± 0.02
- Biodistribution, Kidney, 2 minutes [1, 5]: 5.13 ± 0.75
- Biodistribution, Kidney, 60 minutes [1, 5]: 3.06 ± 0.14
- Biodistribution, Liver, 2 minutes [1, 5]: 16.62 ± 2.11
- Biodistribution, Liver, 60 minutes [1, 5]: 17.67 ± 3.42
- Biodistribution, Lung, 2 minutes [1, 5]: 6.82 ± 0.37
- Biodistribution, Lung, 60 minutes [1, 5]: 1.86 ± 0.36
- Biodistribution, Muscle, 2 minutes [1, 5]: 10.84 ± 1.95
- Biodistribution, Muscle, 60 minutes [1, 5]: 10.28 ± 1.36
- Biodistribution, Skin, 2 minutes [1, 5]: 2.66 ± 0.35
- Biodistribution, Skin, 60 minutes [1, 5]: 3.96 ± 0.22
- Biodistribution, Spleen, 2 minutes [1, 5]: 0.42 ± 0.16
- Biodistribution, Spleen, 60 minutes [1, 5]: 0.45 ± 0.05
- Brain uptake, 2 min ([1]; rats, iv, 2 min): 0.43 ± 0.16 % dose/organ
- Brain uptake, 2 min ([1]; rats, iv, 2 min, listed as TRODAT-1): 0.425 ± 0.120 % dose/organ
- Brain uptake, 30 min ([1]; rats, iv, 30 min): 0.232 ± 0.021 % dose/organ
- Brain uptake, 60 min ([1]; rats, iv, 60 min): 0.12 ± 0.001 % dose/organ and 0.12 ± 0.00 % dose/organ
- SPECT localization in brain (dopamine transporters [2]): excellent consistence with the expected localization of this agent in caudate and putamen areas; also recorded: A high accumulation

Structure (SMILES): COC(=O)C1C(c2ccc(Cl)cc2)CC2CCC1N2CC[S][99Tc-]12(=[O])[S]CC[N+]1(C)CC[S]2 [Compound 3.25, [^99m Tc] technetium, [methyl 3-(4-chlorophenyl)-8-(2-mercaptoethyl)-8-azabicyclo [3.2.1]octane-2-carboxylato-S][[2,2'-(methylimino)bis[ethanethiolato]](2-)-N,S,S']oxo]
- Brain Uptake (% dose), 2 min ([1]; Table 3.1, rats, iv, 2 min): 0.100 ± 0.068 % dose
- Brain Uptake (% dose), 30 min ([1]; Table 3.1, rats, iv, 30 min): 0.07 ± 0.003 % dose
- Biodistribution and washout, in words ([1]; rats, iv): cleared from muscle, while liver accumulation increased with time
- Blood uptake, 2 min ([1]; rats, iv, 2 min): 4.72 ± 1.37 % dose/organ
- Brain uptake, 2 min ([1]; rats, iv, 2 min): 0.10 ± 0.02 % dose/organ
- Heart uptake, 2 min ([1]; rats, iv, 2 min): 1.46 ± 0.37 % dose/organ
- Kidney uptake, 2 min ([1]; rats, iv, 2 min): 5.67 ± 0.94 % dose/organ
- Liver uptake, 2 min ([1]; rats, iv, 2 min): 13.51 ± 0.36 % dose/organ
- Lung uptake, 2 min ([1]; rats, iv, 2 min): 6.41 ± 2.04 % dose/organ
- Muscle uptake, 2 min ([1]; rats, iv, 2 min): 23.30 ± 3.82 % dose/organ
- Skin uptake, 2 min ([1]; rats, iv, 2 min): 2.94 ± 0.36 % dose/organ
- Spleen uptake, 2 min ([1]; rats, iv, 2 min): 0.36 ± 0.07 % dose/organ
- Blood uptake, 30 min ([1]; rats, iv, 30 min): 2.75 ± 0.62 % dose/organ
- Brain uptake, 30 min ([1]; rats, iv, 30 min): 0.06 ± 0.02 % dose/organ
- Heart uptake, 30 min ([1]; rats, iv, 30 min): 0.30 ± 0.04 % dose/organ
- Kidney uptake, 30 min ([1]; rats, iv, 30 min): 3.10 ± 0.68 % dose/organ
- Liver uptake, 30 min ([1]; rats, iv, 30 min): 29.61 ± 2.22 % dose/organ
- Lung uptake, 30 min ([1]; rats, iv, 30 min): 2.09 ± 0.47 % dose/organ
- Muscle uptake, 30 min ([1]; rats, iv, 30 min): 16.70 ± 3.62 % dose/organ
- Skin uptake, 30 min ([1]; rats, iv, 30 min): 4.71 ± 1.27 % dose/organ
- Spleen uptake, 30 min ([1]; rats, iv, 30 min): 0.61 ± 0.10 % dose/organ
- Blood uptake, 60 min ([1]; rats, iv, 60 min): 2.83 ± 0.42 % dose/organ
- Brain uptake, 60 min ([1]; rats, iv, 60 min): 0.046 ± 0.002 % dose/organ
- Heart uptake, 60 min ([1]; rats, iv, 60 min): 0.22 ± 0.23 % dose/organ
- Kidney uptake, 60 min ([1]; rats, iv, 60 min): 2.87 ± 0.43 % dose/organ
- Liver uptake, 60 min ([1]; rats, iv, 60 min): 32.15 ± 3.00 % dose/organ
- Lung uptake, 60 min ([1]; rats, iv, 60 min): 1.26 ± 0.06 % dose/organ
- Muscle uptake, 60 min ([1]; rats, iv, 60 min): 13.63 ± 0.99 % dose/organ
- Skin uptake, 60 min ([1]; rats, iv, 60 min): 4.57 ± 0.65 % dose/organ
- Spleen uptake, 60 min ([1]; rats, iv, 60 min): 0.50 ± 0.09 % dose/organ
- Blood uptake, 120 min ([1]; rats, iv, 120 min): 2.31 ± 0.27 % dose/organ
- Brain uptake, 120 min ([1]; rats, iv, 120 min): 0.025 ± 0.002 % dose/organ
- Heart uptake, 120 min ([1]; rats, iv, 120 min): 0.12 ± 0.013 % dose/organ
- Kidney uptake, 120 min ([1]; rats, iv, 120 min): 2.74 ± 0.096 % dose/organ
- Liver uptake, 120 min ([1]; rats, iv, 120 min): 35.37 ± 1.52 % dose/organ
- Lung uptake, 120 min ([1]; rats, iv, 120 min): 0.69 ± 0.061 % dose/organ
- Muscle uptake, 120 min ([1]; rats, iv, 120 min): 4.33 ± 1.20 % dose/organ
- Skin uptake, 120 min ([1]; rats, iv, 120 min): 2.30 ± 0.082 % dose/organ
- Spleen uptake, 120 min ([1]; rats, iv, 120 min): 0.58 ± 0.009 % dose/organ
- Autoradiographic regional labeling (dopamine transporters [3]): elevated labeling in striatum, major islands of Calleja and olfactory tubercle regions; also recorded: intense labeling in caudate putamen and olfactory tubercle; also recorded: localized in caudate putamen and olfactory tubercle
- Initial brain uptake at 2 minutes ([4]; 2 min post iv injection (Meegalla 1995)): 0.1%
- ST/CB ratio at 60 minutes ([4]; 60 min after iv injection (Meegalla 1995)): 3.50
